Source: publication PMC8804135 (Neurotherapeutics, 2021)
Numbered stars: 1 amine (or outer) side, 2 acyl side, 3 side chain; on linkers, the order of the positions; unused ones are H or OH. Bridge positions count the residues as written; N and C are the ends. Square brackets hold non-standard residues; d marks the D form. Peptide text beside a SMILES is read from it. dAbu(3S-yl) = C[C@@H]([C@@H](N[*:1])C(=O)[*:2])[*:3]; pGlu = O=C1CC[C@@H](C(=O)O)N1

Columns and labels:
GAL1R [1] = target: T1, GAL1R (Homo sapiens, UniProt P47211); test: Label-free dynamic mass redistribution assay, SY5Y-R1 cells; assay type: cell-based; set-up: expressed in transfected cells; conditions: GAL1R-expressing SH-SY5Y cells; 1.6 nM to 5 µM
T1 sequence (P47211 1-349): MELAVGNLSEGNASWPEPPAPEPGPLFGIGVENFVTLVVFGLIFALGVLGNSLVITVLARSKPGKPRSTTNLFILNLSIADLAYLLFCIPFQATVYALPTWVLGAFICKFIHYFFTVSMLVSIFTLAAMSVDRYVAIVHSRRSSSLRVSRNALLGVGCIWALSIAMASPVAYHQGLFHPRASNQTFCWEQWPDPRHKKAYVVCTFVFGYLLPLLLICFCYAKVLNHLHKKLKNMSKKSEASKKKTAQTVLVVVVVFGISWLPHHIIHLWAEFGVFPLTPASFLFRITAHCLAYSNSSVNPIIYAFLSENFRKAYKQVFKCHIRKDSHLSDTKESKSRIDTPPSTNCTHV
Protocol: SH-SY5Y cells stably expressing low levels of either human GAL1R (SY5Y-R1) or GAL2R (SY5Y-R2) and HEK293 cells expressing human GAL3R (HEK-R3) were seeded in EnSpire LFC-[…] well plates (Perkin Elmer) at a concentration of 12,000 cells per well and cultured overnight at 37 °C and 5% CO2. The medium was aspired, and the cells were washed four times with Hank’s balanced salt solution (HBSS) (+ calcium, + magnesium) supplemented with HEPES (20 mM), and the final volume was adjusted to 30 µl per well. The plate was allowed to equilibrate to assay temperature for 1 h in the EnSpire multimode reader (Perkin Elmer). Galanin-(1–30) (GL Biochem) was dissolved and diluted in water. […] A baseline read was first generated by taking 4 measurements before ligands were added. The plate was measured between 30 and 70 repeats, and each treatment was performed in triplicate. […] EC50 values were calculated using Prism 8.2.0 (GraphPad Software Inc.). The values are provided as means of all independent experiments.

[2] = In vitro stability in brain plasma; assay type: in vitro ADME, rat; conditions: Sprague-Dawley, rat, other tissue homogenate, pH 7.4
Protocol: The method to study the stability of peptides in brain plasma is described in the Supplementary material. […]
receptor-2-selective agonist reduces acute food intake
Anneke Kuipers1, Márta Balasko2, Erika Pétervári2, Andreas Koller3,4, Susanne M.
Brunner3,4, Gert N. Moll1,5, Barbara Kofler 3*
In vitro stability in brain plasma
Sprague dawley rat brain lyophilized powder was purchased from MyBioSource (San Diego, USA). One gram brain powder was reconstituted in 10 ml PBS, 0.5 ml 2 M Tris (pH=8), 100 µl Triton X -100 and 10 mg SDS. The solution was centrifuged and the supernatant was collected, aliquoted and stored at -20 °C until usage. To assess the stability, 10 µM GAL-(1-15) and 10 µM M89b were incubated in 1% brain plasma buffered with 200 mM phosphate buffer (pH 7.4) at 37°C for up to 6 hours. At various time points […]
20 µl 100% ACN. Samples were centrifuged and kept on ice. Full-length peptides were quantified by using a C12 column (C12 RP 250 x 4.60 mm column, Phenomenex) on a JASCO HPLC system and applying a gradient of 20 -90% ACN in 0.1% TFA for 30 minutes.
Peptides were detected at 280 nm. A280 areas in chromatograms of the corresponding GAL-(1-15) and M89b full-length peptide peaks were used to determine the amount of peptide left after incubation with cerebrospinal fluid at the different time points. Peptide peaks were determined using JASCO-Borwin Chromatography software (v1.50).

GAL1R [3] = target: T1, GAL1R; test: cAMP Hunter eXpress GAL1R CHO-K1 GPCR assay (inhibition of forskolin-induced cAMP); assay type: cell-based; set-up: expressed in transfected cells; conditions: Table 3; CHO-K1 cells expressing GAL1R; 20 µM forskolin; 10 µM to 5 nM; (average) ratio, (n) in cell = number of assays; NA = ratio above 1000
Protocol: To evaluate the ability of lanthipeptides to […] via GAL1R signaling, we used the cAMP Hunter™ eXpress GAL1R CHO-K1 GPCR Assay from Eurofins-DiscoverX. The assay was performed according to the manufacturer’s instructions. Briefly, for one assay, CHO-K1 cells expressing GAL1R were diluted in AssayComplete™ Cell Plating 2 Reagent, and 100 µl was seeded into each well of a 96-well plate. The plate was incubated at 37 °C, 5% CO2 in a humidified incubator. After 24 h of incubation, the media was aspirated, and 45 µl cell assay buffer/antibody mixture was added to all wells. […] Fifteen µl of the serial dilutions was applied in duplicates to the cells. The concentration of forskolin in the assay was 20 µM. The agonists were incubated for 30 min at 37 °C. Next, 15 µL Antibody Solution and 60 μL cAMP Working Detection Solution were added, and the plate was incubated for 1 h in the dark at room temperature. Finally, 60 μL cAMP Solution A was added and, after 3 h of incubation in the dark at room temperature, the chemiluminescent signal was read with a Synergy HT Biotek reader.

Stimulation of GAL1R, DMR in SY5YR1 cells (GAL1R [1]): stimulate GAL2R only, not GAL1R | remaining at 6 h, 10 µM [2]: ~85%
Compound: CC(C)C[C@H](NC(=O)[C@H](CC(C)C)NC(=O)[C@H](Cc1ccc(O)cc1)NC(=O)CNC(=O)[C@H](C)NC(=O)[C@H](C)NC(=O)[C@H](CC(N)=O)NC(=O)[C@H](CC(C)C)NC(=O)[C@H](CC(N)=O)NC(=O)[C@H](Cc1c[nH]c2ccccc12)NC(=O)[C@@H]1CCC(=O)N1)C(=O)N[C@@H](C)C(=O)N[C@H]1C(=O)N[C@@H](Cc2c[nH]cn2)C(=O)N[C@@H](C)C(=O)N[C@H](C(=O)NCC(=O)O)CS[C@H]1C [Variant M89b, G1pE-T3N-S6A-G12A-methyllanthionine[13–16]-galanin-(1–17)] ([pGlu]WNLNAAGYLLA[dAbu(3S-yl)]HACG-OH; thioether 13-16; C-terminus assumed)
EC50 ratios to Gal-(1-15), GAL1R cAMP (GAL1R [3]): NA (3) (NA is not active; ratios above 1000 were considered to be not active)
